Experimental data: patent publication US8642601B2, “Inhibitors of JNK” (Roche Palo Alto LLC, priority 2010, dated 2014)
Counter-ions that a name gives are not always drawn.

What was measured:
[1] = system: T1, JNK; test: JNK Assay in vitro (phosphorylation of GST-ATF2 (19-96) with [γ-33P] ATP); format: biochemical; conditions: JNK isoform not stated for Table 1 (method describes human JNK1α1, JNK2α2, JNK3); Km concentrations of ATP and substrate
T1 construct: Human JNK2α2 assay contains 1 nM enzyme; Human JNK1α1 assay contains 2 nM enzyme
Experimental: JNK activity was measured by phosphorylation of GST-ATF2 (19-96) with [γ-^33P] ATP. The enzyme reaction was conducted at Km concentrations of ATP and the substrate at final volume of 40 μl in buffer containing 25 mM HEPES, pH 7.5, 2 mM dithiothreitol, 150 mM NaCl, 20 mM MgCl2, 0.001% Tween® 20, 0.1% BSA and 10% DMSO. Human JNK2α2 assay contains 1 nM enzyme, 1 μM ATF2, 8 μM ATP with 1 uCi [γ-^33P] ATP. Human JNK1α1 assay contains 2 nM enzyme, 1 μM ATF2, 6 μM ATP with 1 μCi [γ-^33P] ATP. Human JNK3 (Upstate Biotech #14-501M) assay contains 2 nM enzyme, 1 μM ATF2, 4 μM ATP with 1 μCi [γ-^33P] ATP. The enzyme assay was carried out in the presence or absence of several compound concentrations. JNK and compound were pre-incubated for 10 min., followed by initiation of the enzymatic reaction by adding ATP and the substrate. The reaction mixture was incubated at 30° C. for 30 min. At the end of incubation, the reaction was terminated by transferring 25 μl of the reaction mixture to 150 μl of 10% glutathione Sepharose® slurry (Amersham #27-4574-01) containing 135 mM EDTA. The reaction product was captured on the affinity resin, and washed on a filtration plate (Millipore, MABVNOB50) with phosphate buffered saline for six times to remove free radionucleotide. The incorporation of ^33P into ATF2 was quantified on a microplate scintillation counter (Packard Topcount). Compound inhibition potency on JNK was measured by IC50 value generated from ten concentration inhibition curves fitted into the 3-parameter model: % inhibition=Maximum/(1+(IC50/[Inhibitor])^slope). Data were analyzed on Microsoft Excel for parameter estimation.

| Structure (SMILES) | IC50 [1] [nM] | melting point [°C] |
| --- | --- | --- |
| CCOC(=O)C1(C)CCN(C(=O)[C@H]2CC[C@H](Nc3nccc(-n4ccc5c(OCCCS(C)(=O)=O)cccc54)n3)CC2)CC1 [Compound 10, 1-(4-{4-[4-(3-Methanesulfonyl-propoxy)-indol-1-yl]-pyrimidin-2-ylamino}-cyclohexanecarbonyl)-4-methyl-piperidine-4-carboxylic acid ethyl ester] | 58.4 | 171 to 173 |
| CC1(C(=O)O)CCN(C(=O)[C@H]2CC[C@H](Nc3nccc(-n4ccc5c(OCCCS(C)(=O)=O)cccc54)n3)CC2)CC1 [Compound 18, 1-(4-{4-[4-(3-Methanesulfonyl-propoxy)-indol-1-yl]-pyrimidin-2-ylamino}-cyclohexanecarbonyl)-4-methyl-piperidine-4-carboxylic acid] | 153 | 174 |
| O=C(O)C1CCN(C(=O)[C@H]2CC[C@H](Nc3nccc(-n4ccc5c(OCC6CCS(=O)(=O)C6)cccc54)n3)CC2)CC1 (stereo partly drawn) [Compound 8, 1-(4-{4-[4-(1,1-Dioxo-tetrahydro-1λ^6-thiophen-3-ylmethoxy)-indol-1-yl]-pyrimidin-2-ylamino}-cyclohexanecarbonyl)-piperidine-4-carboxylic acid] | 70.8 | 172 to 174 |
| CC(C)(O)C1CCN(C(=O)[C@H]2CC[C@H](Nc3nccc(-n4ccc5c(OCCCS(C)(=O)=O)cccc54)n3)CC2)CC1 [Compound 6, [4-(1-Hydroxy-1-methyl-ethyl)-piperidin-1-yl]-(4-{4-[4-(3-methanesulfonyl-propoxy)-indol-1-yl]-pyrimidin-2-ylamino}-cyclohexyl)-methanone] | 86 | 196 to 198 |
| CS(=O)(=O)CCCOc1cccc2c1ccn2-c1ccnc(N[C@H]2CC[C@H](C(=O)N3CCC(C(N)=O)CC3)CC2)n1 [Compound 5, 1-(4-{4-[4-(3-Methanesulfonyl-propoxy)-indol-1-yl]-pyrimidin-2-ylamino}-cyclohexanecarbonyl)-piperidine-4-carboxylic acid amide] | 91.7 | 219 to 221 |
| CCN1CC[C@@H](NC(=O)[C@H]2CC[C@H](Nc3nccc(-n4ccc5c(OCCCS(C)(=O)=O)cccc54)n3)CC2)C1 [Compound 12, 4-{4-[4-(3-Methanesulfonyl-propoxy)-indol-1-yl]-pyrimidin-2-ylamino}-cyclohexanecarboxylic acid ((R)-1-ethyl-pyrrolidin-3-yl)-amide] | 93.8 | 229 to 231 |
| CCOC1CC2CCC(C1)N2C(=O)[C@H]1CC[C@H](Nc2nccc(-n3ccc4c(OCCCS(C)(=O)=O)cccc43)n2)CC1 (stereo partly drawn) (as salt: salt) [Compound 26, (3-Ethoxy-8-aza-bicyclo[3.2.1]oct-8-yl)-(4-{4-[4-(3-methanesulfonyl-propoxy)-indol-1-yl]-pyrimidin-2-ylamino}-cyclohexyl)-methanone; compound with formic acid] |  | 125 to 130 |
| CCN1CCN(C(=O)[C@H]2CC[C@H](Nc3nccc(-n4ccc5c(OCC6CCS(=O)(=O)C6)cccc54)n3)CC2)C[C@H]1C (stereo partly drawn) (as salt: HCl) [Compound 3, (4-{4-[4-(1,1-Dioxo-tetrahydro-1λ^6-thiophen-3-ylmethoxy)-indol-1-yl]-pyrimidin-2-ylamino}-cyclohexyl)-((R)-4-ethyl-3-methyl-piperazin-1-yl)-methanone] |  | 225 |
| CCOC(=O)CC1CCN(C(=O)[C@H]2CC[C@H](Nc3nccc(-n4ccc5c(OCCCS(C)(=O)=O)cccc54)n3)CC2)CC1 [Compound 1, [1-(4-{4-[4-(3-Methanesulfonyl-propoxy)-indol-1-yl]-pyrimidin-2-ylamino}-cyclohexanecarbonyl)-piperidin-4-yl]-acetic acid ethyl ester] | 550 | 175 to 177 |
| CCCN1CCC[C@@H](NC(=O)[C@H]2CC[C@H](Nc3nccc(-n4ccc5c(OCCCS(C)(=O)=O)cccc54)n3)CC2)C1 [Compound 16, 4-{4-[4-(3-Methanesuflonyl-propoxy)-indol-1-yl]-pyrimidin-2-ylamino}-cyclohexanecarboxylic acid ((S)-1-propyl-piperidin-3-yl)-amide] | 163 | 185 to 190 |
| C[C@@H]1CN(C(=O)[C@H]2CC[C@H](Nc3nccc(-n4ncc5c(OCCCS(C)(=O)=O)cccc54)n3)CC2)CCN1 (as salt: HCl) [Compound 24, (4-{4-[4-(3-Methanesulfonyl-propoxy)-indazol-1-yl]-pyrimidin-2-ylamino}-cyclohexyl)-((R)-3-methyl-piperazin-1-yl)-methanone] |  | 245 to 250 |
| CCN1CCN(C(=O)[C@H]2CC[C@H](Nc3nccc(-n4ccc5c(OCC6CCS(=O)(=O)C6)cccc54)n3)CC2)C[C@@H]1C (stereo partly drawn) (as salt: HCl) [Compound 9, (4-{4-[4-(1,1-Dioxo-tetrahydro-1λ^6-thiophen-3-ylmethoxy)-indol-1-yl]-pyrimidin-2-ylamino}-cyclohexyl)-((S)-4-ethyl-3-methyl-piperazin-1-yl)-methanone] |  | 198 to 204 |
| CCCN1CC[C@@H](NC(=O)[C@H]2CC[C@H](Nc3nccc(-n4ccc5c(OCCCS(C)(=O)=O)cccc54)n3)CC2)C1 (as salt: HCl) [Compound 11, 4{4-[4-(3-Methanesulfonyl-propoxy)-indol-1-yl]-pyrimidin-2-ylamino}-cyclohexanecarboxylic acid ((R)-1-propyl-pyrrolidin-3-yl)-amide] |  | 140 to 142 |
| CCN1CCC[C@@H](NC(=O)[C@H]2CC[C@H](Nc3nccc(-n4ccc5c(OCCCS(C)(=O)=O)cccc54)n3)CC2)C1 (as salt: HCl) [Compound 15, 4-{4-[4-(3-Methanesulfonyl-propoxy)-indol-1-yl]-pyrimidin-2-ylamino}-cyclohexanecarboxylic acid ((R)-1-ethyl-piperidin-3-yl)-amide] |  | 180 to 185 |
| CCOC(=O)C1CCN(C(=O)[C@H]2CC[C@H](Nc3nccc(-n4ccc5c(OCC6CCS(=O)(=O)C6)cccc54)n3)CC2)CC1 (stereo partly drawn) [Compound 7, 1-(4-{4-[4-(1,1-Dioxo-tetrahydro-1λ^6-thiophen-3-ylmethoxy)-indol-1-yl]-pyrimidin-2-ylamino}-cyclohexanecarbonyl)-piperidine-4-carboxylic acid ethyl ester] | 51.4 | 209 to 211 |
| CCN1CCCC(NC(=O)[C@H]2CC[C@H](Nc3nccc(-n4ccc5c(OCC6CCS(=O)(=O)C6)cccc54)n3)CC2)C1 (stereo partly drawn) (as salt: HCl) [Compound 29, 4-{4-[4-(1,1-Dioxo-tetrahydro-1λ^6-thiophen-3-ylmethoxy)-indol-1-yl]-pyrimidin-2-ylamino}-cyclohexanecarboxylic acid (1-ethyl-piperidin-3-yl)-amide] |  | 205 to 210 |
| CS(=O)(=O)CCCOc1cccc2c1ccn2-c1ccnc(N[C@H]2CC[C@H](C(=O)N3CCC[C@H](C(=O)O)C3)CC2)n1 [Compound 4, (S)-1-(4-{4-[4-(3-Methanesulfonyl-propoxy)-indol-1-yl]-pyrimidin-2-ylamino}-cyclohexanecarbonyl)-piperidine-3-carboxylic acid] | 107 | 270 to 276 |
